The test system of data set [1] is human neutrophilic leukocytes. Put plainly: Inhibition of superoxide radical (O2-) generation in FMLP-stimulated human neutrophilic leukocytes (ferricytochrome C method). It counts as cell-based. The note with it: Homo sapiens, Leukocyte. The method in brief: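 Neutrophils were isolated from healthy adult blood by dextran-hypotonic treatment and Ficoll-Paque gradient. Compounds in DMSO were pre-incubated with the cells at 37° C before FMLP stimulation. O2− generation was measured by ferricytochrome C reduction.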

The subject of data set [2] is heart muscle. Put plainly: Inhibition of heart muscle necrosis in rat caused by clogging of the coronary artery and subsequent blood reperfusion (tissue CPK). The note with it: male SD rats; 6 mg/kg intravenously 5 minutes before ligature; ischemic area 2 hours after reperfusion; p < 0.05 vs control. In kind it is in vivo. How it is done:
1 (4) Activity for inhibiting the heart muscle necrosis in rat caused by clogging of the coronary artery and subsequent blood reperfusion
Male rats of SD strain (7-10 week old, 250-350 g) were used in this test. The activity of creatine phosphokinase (CPK) in tissue was used as an indication of heart muscle necrosis.
A test compound was dissolved in a small amount of 1N aqueous NaOH solution, then diluted with a physiological saline solution, and administered at a dose of 1 ml/kg of body weight. Each rat was anesthetized with pentobarbital and thoracotomized under artifical respiration; the descending branch before left coronary artery was ligated with a piece of silk string for 12 minutes; then, the blood was reperfused. Thereafter, the thoracotomized chest was closed and the rat was waken from anesthesia. 2 hours after reperfusion, the heart was enucleated under anesthesia; only the ischemic area was homogenized; and the activity of CPK contained therein was measured. The test compound was intravenously administered at a dose of 6 mg/kg 5 mintues before ligature of the coronary artery.
The results on the NaOH/physiological saline solution-administered group as a control and the compound-administered group are shown in Table 19.

By melting point is commonly meant the temperature of the solid-liquid transition. With `COc1cc(-c2nc(-c3ccc4c(c3)CCC(=O)N4)cs2)ccc1[S+](C)[O-]` (centres unmarked) [Example 149, 2-(3-methoxy-4-methylsulfinylphenyl)-4-(3,4-dihydrocarbostyril-6-yl)thiazole], the melting point was in the range of 264 to 265 °C.

As to `COc1cc(-c2nc(-c3ccc4c(c3)CCC(=O)N4)cs2)ccc1S(C)(=O)=O` [Example 150, 2-(3-methoxy-4-methylsulfonylphenyl)-4-(3,4-dihydrocarbostyril-6-yl)thiazole], the melting point is 284 to 286 °C.

`COc1ccc(C(O)c2nc(-c3ccc4[nH]c(=O)c(O)c(O)c4c3)cs2)cc1OC` (centres unmarked) [Example 151, 2-[1-(3,4-dimethoxyphenyl)-1-hydroxymethyl]-4-(3,4-dihydroxycarbostyril-6-yl)thiazole] showed a melting point of 188 to 189 °C. Turning to `COc1ccc(C(=O)c2nc(-c3ccc4[nH]c(=O)c(O)c(O)c4c3)cs2)cc1OC` [Example 152, 2-(3,4-dimethoxybenzoyl)-4-(3,4-dihydroxycarbostyril-6-yl) thiazole], the melting point was in the range of 249 to 251 °C. Same read-out and setting: the result for `CCOc1ccc(-c2nc(-c3ccc(O[C@@H]4O[C@H](CO)[C@@H](O)[C@H](O)[C@H]4O)cc3)cs2)cc1OCC` [Example 237, 4-[4-(β-D-glucopyranosyloxy)-phenyl]-2-(3,4-diethoxyphenyl)thiazole] reads 138 to 140 °C.

The molecule `COc1ccc(-c2nc(-c3ccc(OS(=O)(=O)O)cc3)cs2)cc1OC` [Example 238, 4-(4-hydroxysulfonyloxyphenyl)-2-(3,4-dimethoxyphenyl)thiazole] had a melting point of 248 to 249 °C. Turning to `CCOc1ccc(-c2nc(-c3ccc(N4CCOCC4)c([N+](=O)[O-])c3)cs2)cc1OCC` [Example 242, 4-(4-morpholino-3-nitrophenyl)-2-(-3,4-diethoxyphenyl) thiazole], the melting point fell in the range of 119 to 120 °C. Same read-out and setting: the result for `CCOc1ccc(C(=O)c2csc(-c3ccc(OCC)c(OCC)c3)n2)cc1OCC` [Example 246, 2-(3,4-diethoxyphenyl)-4-(3,4-diethoxybenzoyl)thiazole] reads 128 to 129 °C; that for `CCOc1ccc(-c2nc(C=Cc3ccccc3)cs2)cc1OCC` [Example 247, 2-(3,4-diethoxyphenyl)-4-styrylthiazole], 94 to 95 °C. `C=CCc1cc(-c2csc(-c3ccc(OCC)c(OCC)c3)n2)cc(C(=O)OC)c1O` [Example 353, 2-(3,4-diethoxyphenyl)-4-(3-methoxycarbonyl-4-hydroxy-5-allylphenyl)thiazole] displayed a melting point of 118 to 119 °C. Same read-out and setting: the result for `CCOc1ccc(-c2nc(-c3ccc(SC(=O)N(C)C)c(C(=O)OC)c3)cs2)cc1OCC` [Example 354, 2-(3,4-diethoxyphenyl)-4-(4-dimethylaminocarbonylthio-3-methoxycarbonylphenyl)thiazole] reads 108 to 109 °C; that for `CCOc1ccc(-c2nc(-c3ccc(S)cc3C(=O)O)cs2)cc1OCC` [Example 355, 2-(3,4-diethoxyphenyl)-4-(4-mercapto-2-carboxyphenyl)-thiazole], 283 to 285 °C; that for `CCOc1ccc(-c2nc(-c3cc(CCO)c(O)c(C(=O)OC)c3)cs2)cc1OCC` [Example 358, 2-(3,4-diethoxyphenyl)-4-[3-methoxycarbonyl-4-hydroxy-5-(2-hydroxyethyl)phenyl]-thiazole], 113 to 114 °C. `CCOc1ccc(-c2nc(-c3ccc(N)c(C(=O)O)c3)cs2)cc1OCC` [Example 359, 2-(3,4-diethoxyphenyl)-4-(3-carboxy-4-aminophenyl)thiazole]: the melting point was 228 to 229 °C. `CCOc1ccc(-c2nc(-c3cc(C(=O)O)c(O)cc3O)cs2)cc1OCC` [Example 360, 2-(3,4-diethoxyphenyl)-4-(3-carboxy-4,6-dihydroxyphenyl)thiazole] displayed a melting point of 233 to 234 °C.

`CCOc1ccc(-c2nc(-c3cccc(C(=O)O)c3)cs2)cc1OCC` [Example 362, 2-(3,4-diethoxyphenyl)-4-(3-carboxyphenyl)thiazole] had a melting point of 192 to 192.8 °C. Molecule `CCCc1cc(-c2csc(-c3ccc(OCC)c(OCC)c3)n2)cc(C(=O)O)c1O` [Example 363, 2-(3,4-diethoxyphenyl)-4-(3-carboxy-4-hydroxy-5-propylphenyl)thiazole] gave a melting point of 179 to 180 °C. The molecule `CCOc1ccc(-c2nc(-c3ccc(OC(C)=O)c(C(=O)O)c3)cs2)cc1OCC` [Example 364, 2-(3,4-diethoxyphenyl)-4-(3-carboxy-4-acetyloxyphenyl)thiazole] gave a melting point of 178 to 179 °C. The same measure, in the same setting: the result for `CCOc1ccc(-c2nc(-c3cccc(CO)n3)cs2)cc1OCC` [Example 454, 2-(3,4-diethoxyphenyl)-4-(2-hydroxymethyl-6-pyridyl)thiazole] reads 109 to 113 °C; that for `CCOc1ccc(-c2nc(-c3ccc(OS(=O)(=O)C(F)(F)F)c(C(=O)OC)c3)cs2)cc1OCC` [Example 457, 2-(3,4-diethoxyphenyl)-4-(3-methoxycarbonyl-4-trifluoromethanesulfonyloxyphenyl) thiazole], 112 to 113 °C; that for `CCOc1ccc(-c2nc(Cn3cccc3C(C)=O)cs2)cc1OCC` [Example 459, 2-(3,4-diethoxyphenyl)-4-(2-acetyl-1-pyrrolyl)methylthiazole], 123 to 124 °C.

Turning to `CCCCCCCCCOC(=O)c1cc(-c2csc(-c3ccc(OCC)c(OCC)c3)n2)ccc1O` [Example 461, 2-(3,4-diethoxyphenyl)-4-(3-nonyloxycarbonyl-4-hydroxyphenyl)thiazole], the melting point is 67 to 68 °C.

In turn, `CCOc1ccc(-c2nc(-c3cc4c(c(C(=O)O)c3)OC(C)(C)C4)cs2)cc1OCC` [Example 465, 2-(3,4-diethoxyphenyl)-4-(2,2-dimethyl-7-carboxy-2,3-dihydrobenzofuran-5-yl)thiazole] displayed a melting point of 106 to 107 °C.

As to `CCOC(=O)C=Cc1cc(-c2csc(-c3ccc(OCC)c(OCC)c3)n2)cc(C(=O)OCOC)c1OCOC` [Example 512, 2-(3,4-diethoxyphenyl)-4-[3-methoxymethoxycarbonyl-4-methoxymethoxy-5-(2-ethoxycarbonylvinyl)phenyl]thiazole], the melting point was 94 to 96 °C.

The molecule `CCOc1ccc(-c2nc(-c3cc(C=CC(=O)O)c(O)c(C(=O)O)c3)cs2)cc1OCC` [Example 514, 2-(3,4-diethoxyphenyl)-4-[3-carboxy-4-hydroxy-5-(2-carboxyvinyl)phenyl] thiazole] returned a melting point of 260 to 261 °C.

`CCOc1ccc(-c2nc(-c3cc(C(=O)O)ccn3)cs2)cc1OCC` [Example 516, 2(3,4-diethoxyphenyl)-4-(4-carboxy-2-pyridyl)thiazole] came in with a melting point of 236.2 to 237.2 °C. One may read the IC50 as the midpoint of a concentration-inhibition curve. Low values mean higher potency, high ones lower potency. In the case of `CCOc1ccc(-c2nc(-c3ccc(O)c(C(=O)O)c3)cs2)cc1OCC` [compound 62, 4-(3-Carboxy-4-hydroxyphenyl)-2-(3,4-diethoxy-phenyl)thiazole], the IC50 in data set [1] (Table 16, comparative test present compounds vs prior art compounds, NE = not effective) was 10 nM; in data set [1] (pH 7.4, Table 15, O2- generation, 3x10^-7 M FMLP, cytochalasin B, 37° C., pH 7.4) it was 10 nM. For the same molecule, in data set [2], the “Activity of creatine phosphokinase in tissue, Mean ± S.E.” value is given as 19.53 ± 1.56 U/mg of protein.

For the origin of these results see patent USRE37556E1, “Superoxide radical inhibitor” (Otsuka Pharmaceutical Co., Ltd., priority 1990, dated 2002).
